Measured values reported in the CombiSolv-Exp solvation set (Vermeire and Green 2021).

Experiment: solvent given as SMILES

Cc1ccccc1
Details | solvation free energy, 298 K [kcal/mol]
in Brc1ccccc1 | -5.15
in C1CCCCC1 | -4.89
in C1CCOC1 | -5.44
in C1COCCO1 | -5.15
in C=CCCCCCCCCCCCCCC | -4.57
in CC1CCS(=O)(=O)C1 | -4.64
in CC1COC(=O)O1 | -4.43
in CC#N | -4.72
in CC(=O)N(C)C | -4.91
in CC(=O)O | -4.57
in CC(=O)c1ccccc1 | -4.93
in CC(C)(C)O | -4.41
in CC(C)=O | -4.97
in CC(C)CC(C)(C)C | -4.66
in CC(C)CCCC(C)CCCC(C)CCCCC(C)CCCC(C)CCCC(C)C | -4.43
in CC(C)CCO | -4.47
in CC(C)CO | -4.37
in CC(C)O | -4.38
in CC(C)OC(C)C | -4.89
in CC(Cl)Cl | -5.32
in CC(O)CO | -3.58
in CCBr | -5.44
in CCC#N | -5.16
in CCC(C)=O | -5.07
in CCCC#N | -5.01
in CCCCC | -4.75
in CCCCC(CC)COC(=O)CCCCC(=O)OCC(CC)CCCC | -4.78
in CCCCC(CC)COC(=O)c1ccccc1C(=O)OCC(CC)CCCC | -4.55
in CCCCCC | -4.78
in CCCCCCC | -4.74
in CCCCCCCCCC | -4.66
in CCCCCCCCCCCCCCCC | -4.57
in CCCCCCCCO | -4.5
in CCCCCCO | -4.53
in CCCCCO | -4.49
in CCCCCl | -5.16
in CCCCN(C=O)CCCC | -4.91
in CCCCO | -4.52
in CCCCOC(=O)c1ccccc1C(=O)OCCCC | -4.82
in CCCCOC(C)=O | -5.5
in CCCCOCCCC | -4.88
in CCCO | -4.51
in CCN1CCCC1=O | -5.06
in CCN(CC)C(C)=O | -4.97
in CCN(CC)CC | -4.93
in CCNC(C)=O | -4.57
in CCNC=O | -4.49
in CCO | -4.46
in CCOC(=O)c1ccccc1C(=O)OCC | -4.68
in CCOC(C)=O | -5.04
in CCOCC | -5.12
in CCOCCOCCOCC | -4.96
in CCOc1ccccc1 | -5.02
in CN1CCCC1=O | -4.95
in CN1CCCCC1=O | -5.02
in CN(C)C=O | -4.89
in CN(C)P(=O)(N(C)C)N(C)C | -5
in CNC(C)=O | -4.57
in CNC=O | -4.35
in CO | -4.35
in COCCO | -4.55
in COc1ccccc1 | -5.04
in CS(C)=O | -4.53
in Cc1ccc(C)cc1 | -5.08
in Cc1cccc(C)n1 | -5.1
in Cc1cccc(O)c1 | -4.63
in Cc1ccccn1 | -5.12
in ClC(Cl)(Cl)Cl | -5.18
in ClC(Cl)Cl | -5.53
in ClCCCl | -5.3
in ClCCl | -5.5
in Clc1ccccc1 | -5.2
in FC(F)(F)C(F)(F)C(F)(F)C(F)(F)C(F)(F)C(F)(F)F | -3.08
in Fc1c(F)c(F)c(F)c(F)c1F | -5.33
in Fc1ccccc1 | -5.24
in ICI | -4.53
in Ic1ccccc1 | -5.03
in NC=O | -3.02
in NCCO | -3.5
in Nc1ccccc1 | -4.6
in O | -0.85
in O=C1CCCCC1 | -5.13
in O=C1CCCO1 | -4.72
in O=CN1CCOCC1 | -4.48
in O=Cc1ccco1 | -4.56
in OCCCCCO | -3.84
in OCCCCO | -3.79
in OCCCO | -3.52
in OCCO | -3.02
in OCCOCCOCCOCCO | -3.99
in OCCS | -4.12
in OCc1ccccc1 | -4.53
in S=C=S | -5.33
in [2H]O[2H] | -0.99
in c1ccc2ncccc2c1 | -4.82
in c1ccc(COCc2ccccc2)cc1 | -4.79
in c1ccccc1 | -5.32
in c1ccncc1 | -5.11

CC(C)COC(=O)C(C)C
Details | solvation free energy, 298 K [kcal/mol]
in O | -1.69

CCCCCCCCCC(=O)OC
Details | solvation free energy, 298 K [kcal/mol]
in O | -1.91

COS(C)(=O)=O
Details | solvation free energy, 298 K [kcal/mol]
in O | -4.87

CCCCCCCCCCCCCCCCCCCCC
Details | solvation free energy, 298 K [kcal/mol]
in CC(=O)N(C)C | -14.3
in CC(C)(C)O | -12.9
in CN(C)C=O | -14.4
in O | 4.71

COC(=O)c1ccccc1
Details | solvation free energy, 298 K [kcal/mol]
in CC(C)CC(C)(C)C | -6.71
in O | -3.91

CCCCCCCCCCCC(=O)OC
Details | solvation free energy, 298 K [kcal/mol]
in O | -2.91

Cc1ccc(C(=O)O)cc1
Details | solvation free energy, 298 K [kcal/mol]
in C=CCCCCCCCCCCCCCC | -6.96
in CCCCCCCCO | -10.2
in O | -7.35

C=C(C)C1CC=C(C)C(O)C1 (stereo unspecified)
Details | solvation free energy, 298 K [kcal/mol]
in O | -4.44

COC(C)(OC)OC
Details | solvation free energy, 298 K [kcal/mol]
in O | -4.42

CCCCCCN
Details | solvation free energy, 298 K [kcal/mol]
in CCCCCCC | -5.51
in O | -4

CCCCCCCCCCCCCC(=O)OCC
Details | solvation free energy, 298 K [kcal/mol]
in O | -7.32
